Assays:
Septoria tritici = test: Example B-13: action against Septoria tritici, fungal growth assay; type: cell-based; details: for fungal growth inhibition: 72 hrs
Protocol: (§1) Example B-13: Action Against Septoria tritici—Fungal Growth Assay Conidia of the fungus from cryogenic storage were directly mixed into nutrient broth (PDB potato dextrose broth). After placing a (DMSO) solution of the test compounds into a microtiter plate (96-well format) the nutrient broth containing the fungal spores was added. The test plates were incubated at 24° C. and the inhibition of growth was determined photometrically after 72 hrs. The activity of a compound is expressed as fungal growth inhibition (0=no growth inhibition, ratings of 80% to 99% mean good to very good inhibition, 100%=complete inhibition).

[1] = system: Monographella nivalis (Fusarium nivale, Microdochium nivale); test: Example B-14: action against Monographella nivalis, fungal growth assay; type: cell-based; details: 72 hrs
Protocol: Example B-14: Action Against Monographella nivalis (Anamorph: Fusarium nivale, Microdochium nivale; Snow Mould)—Fungal Growth Assay After placing a DMSO-solution (2% Dimethylsulfoxid, 0.025% Tween 20) of the test compounds into a microtiter plate (96-well format) the nutrient broth containing the fungal spores was added. 40.000 conidia/ml of the fungus from cryogenic storage were directly mixed into nutrient broth (PDB potato dextrose broth). The compounds were tested at a variety of application rates; these rates are shown in parts per million (ppm) in the table. The test plates were incubated at 24° C. and the inhibition of growth was measured photometrically after 72 hrs (0=no growth inhibition, ratings of 80% to 99% mean good to very good inhibition, 100%=complete inhibition).

[2] = system: Mycosphaerella arachidis (Cercospora arachidicola); test: Example B-12: action against Mycosphaerella arachidis, fungal growth assay; type: cell-based; details: 6-7 days
Protocol: as §1, with “B-12:” for “B-13:”, “Mycosphaerella arachidis (Early Leaf Spot of Groundnut; Cercospora arachidicola (Anamorph))—Fungal” for “Septoria tritici—Fungal”, “measured” for “determined”, “6-7 days.” for “72 hrs.”

Botrytis cinerea = test: Example B-11: action against Botrytis cinerea, fungal growth assay; type: cell-based; details: 48-72 hrs
Protocol: as §1, with “B-11:” for “B-13:”, “Botrytis cinerea—Fungal” for “Septoria tritici—Fungal”, “48-72” for “72”

Pyrenophora teres = test: Example B-15: action against Pyrenophora teres (net blotch) on barley leaf segments; type: in vivo; details: 4 days after inoculation
Protocol: Example B-15: Action Against Pyrenophora teres (Net Blotch) on Barley Barley leaf segments are placed on agar in multiwell plates (24-well format) and sprayed with test solutions (200 ppm, […], and 20 ppm of active ingredient). After drying, the leaf disks are inoculated with a spore suspension of the fungus. After appropriate incubation the activity of a compound is assessed 4 days after inoculation as preventive fungicidal activity (in %).

For `CC(Cc1ccc(Cl)cc1Cl)NC(=O)c1cn(C)nc1C(F)F` (single isomer, unassigned; (-)) [(−)-3-difluoromethyl-1-methyl-1H-pyrazole-4-carboxylic acid ] [(−)-3-difluoromethyl-1-methyl-1H-pyrazole-4-carboxylic acid [2-(2,4-dichlorophenyl)-1-methyl-ethyl]-amide], the fungal growth inhibition (Septoria tritici; 2 ppm) was 0%, the fungal growth inhibition (Septoria tritici; 6 ppm) was 80% and the fungal growth inhibition (Septoria tritici; 20 ppm) was 100%. For the same compound, the inhibition of growth ([1]; 2 ppm) was 0%, the inhibition of growth ([1]; 6 ppm) was 0% and the inhibition of growth ([1]; 20 ppm) was 20%. The fungal growth inhibition ([2]; 2 ppm) was 0%, the fungal growth inhibition ([2]; 6 ppm) was 50% and the fungal growth inhibition ([2]; 20 ppm) was 80%. For the same compound, the fungal growth inhibition (Botrytis cinerea; 2 ppm) was 0%, the fungal growth inhibition (Botrytis cinerea; 6 ppm) was 20% and the fungal growth inhibition (Botrytis cinerea; 20 ppm) was 20%. For the same compound, the preventive fungicidal activity (Pyrenophora teres; 20 ppm) was 80%, the preventive fungicidal activity (Pyrenophora teres; 60 ppm) was 100% and the preventive fungicidal activity (Pyrenophora teres; 200 ppm) was 100%.
Compound `CC(Cc1ccc(-c2ccc(Cl)cc2)cc1Cl)NC(=O)c1cn(C)nc1C(F)F` (stereo not shown) [Compound 1.462, 3-difluoromethyl-1-methyl-1H-pyrazole-4-carboxylic acid [2-(3,4′-dichlorobiphenyl-4-yl)-1-methyl-ethyl]-amide] has a melting point of 96 to 98 °C.
With `CC(Cc1ccc(Cl)cc1Cl)NC(=O)c1cn(C)nc1C(F)F` (stereo not shown) [Compound 1.197, 3-difluoromethyl-1-methyl-1H-pyrazole-4-carboxylic acid [2-(2,4-dichlorophenyl)-1-methyl-ethyl]-amide] the melting point was 157 °C.
For `CC(Cc1ccc(Cl)cc1Cl)NC(=O)c1cn(C)nc1C(F)F` (single isomer, unassigned; (+)) [(+)-3-difluoromethyl-1-methyl-1H-pyrazole-4-carboxylic acid ] [(+)-3-difluoromethyl-1-methyl-1H-pyrazole-4-carboxylic acid [2-(2,4-dichlorophenyl)-1-methyl-ethyl]-amide], the inhibition of growth ([1]; 2 ppm) was 100%, the inhibition of growth ([1]; 6 ppm) was 100% and the inhibition of growth ([1]; 20 ppm) was 100%. The fungal growth inhibition (Botrytis cinerea; 2 ppm) was 80%, the fungal growth inhibition (Botrytis cinerea; 6 ppm) was 100% and the fungal growth inhibition (Botrytis cinerea; 20 ppm) was 100%. For the same compound, the preventive fungicidal activity (Pyrenophora teres; 20 ppm) was 100%, the preventive fungicidal activity (Pyrenophora teres; 60 ppm) was 100% and the preventive fungicidal activity (Pyrenophora teres; 200 ppm) was 100%.
`CC(Cc1ccc(Br)cc1Cl)NC(=O)c1cn(C)nc1C(F)F` (stereo not shown) [Compound 1.451, 3-difluoromethyl-1-methyl-1H-pyrazole-4-carboxylic acid [2-(4-bromo-2-chlorophenyl)-1-methyl-ethyl]-amide] gave a melting point of 183 to 184 °C.
Work on `CC(Cc1ccc(Cl)cc1Cl)NC(=O)c1cn(C)nc1C(F)F` (single isomer, unassigned; (+)) [(+)-3-difluoromethyl-1-methyl-1H-pyrazole-4-carboxylic acid [2-(2,4-dichlorophenyl)-1-methyl-ethyl]-amide] yielded an inhibition at 6 ppm (Septoria tritici; Zymoseptoria tritici, 72 h, 6 ppm) of 100%, an inhibition at 20 ppm (Septoria tritici; Zymoseptoria tritici, 72 h, 20 ppm) of 100% and an inhibition at 20 ppm ([2]; Mycosphaerella arachidis, 20 ppm) of 100%.
Compound `Cn1cc(C(=O)NC2(Cc3ccc(Cl)cc3Cl)CC2)c(C(F)F)n1` [Compound 1.231, 3-difluoromethyl-1-methyl-1H-pyrazole-4-carboxylic acid [1-(2,4-dichlorobenzyl)-cyclopropyl]-amide] has a melting point of 165 to 168 °C.

From patent US20110207771A1, “N-(L-ALKYL-2-PHENYLETHYL)-CARBOXAMIDE DERIVATIVES AND USE THEREOF AS FUNGICIDES” (SYNGENTA CROP PROTECTION, INC., priority 2006, published 2011)
